Assay results published in patent US6630496B1, “Inhibitors of phospholipase enzymes” (Genetics Institute LLC, priority 1996, dated 2003).
Like-named read-outs stand apart in the source and are kept apart here.

Key:
cPLA2 [1] = molecular target: T1, cPLA2 (Homo sapiens, UniProt P47712); experiment: Coumarine assay (7-hydroxycoumarinyl 6-heptenoate hydrolysis); type: biochemical
T1 sequence (P47712 1-749): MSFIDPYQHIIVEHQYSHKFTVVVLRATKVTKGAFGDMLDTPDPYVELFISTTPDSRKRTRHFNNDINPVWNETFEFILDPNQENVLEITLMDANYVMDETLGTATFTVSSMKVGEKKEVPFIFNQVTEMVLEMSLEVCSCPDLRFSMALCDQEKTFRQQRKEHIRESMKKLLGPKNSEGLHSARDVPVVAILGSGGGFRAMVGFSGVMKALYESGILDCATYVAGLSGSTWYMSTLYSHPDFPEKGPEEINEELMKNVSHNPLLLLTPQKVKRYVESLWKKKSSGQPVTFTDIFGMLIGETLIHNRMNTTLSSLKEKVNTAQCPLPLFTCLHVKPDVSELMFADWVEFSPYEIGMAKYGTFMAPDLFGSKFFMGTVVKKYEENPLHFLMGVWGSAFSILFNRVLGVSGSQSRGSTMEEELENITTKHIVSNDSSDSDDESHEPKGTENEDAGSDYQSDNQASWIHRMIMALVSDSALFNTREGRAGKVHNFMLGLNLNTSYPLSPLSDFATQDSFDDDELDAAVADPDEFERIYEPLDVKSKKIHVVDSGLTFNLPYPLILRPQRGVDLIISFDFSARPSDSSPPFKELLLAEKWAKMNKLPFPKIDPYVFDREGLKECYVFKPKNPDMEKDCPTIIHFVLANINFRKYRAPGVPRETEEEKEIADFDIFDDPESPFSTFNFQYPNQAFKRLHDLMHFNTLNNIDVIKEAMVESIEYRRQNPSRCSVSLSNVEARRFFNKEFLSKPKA
Method: 7-hydroxycoumarinyl 6-heptenoate was used as a monomeric substrate for cPLA2 as reported previously (Huang, Z. et al., 1994, Analytical Biochemistry 222, 110-115). Inhibitors were mixed with 200 μL assay buffer (80 mM Hepes, pH 7.5, 1 mM EDTA) containing 60 μM 7-hydroxycoumarinyl 6-heptenoate. The reaction was initiated by adding 4 μg cPLA2 in 50 μL assay buffer. Hydrolysis of the 7-hydroxycoumarinyl 6-heptenoate ester was monitored in a fluorometer by exciting at 360 nm and monitoring emission at 460 nm. Enzyme activity is proportional to the increasein emission at 460 nm per minute. In the presence of a cPLA2 inhibitor, the rate of increase is less.

cPLA2 [2] = molecular target: T1, cPLA2; experiment: Soluble substrate assay (LysoPC); type: biochemical
Method: (b) Soluble Substrate Assay (LysoPC)
The lipid was resuspended by vortexing 80 mM Hepes pH 7.5, 1 mM EDTA (1.2×final concentration). A typical assay consisted of lipid suspension (85 μl) to which was added consecutively the inhibitor (5 μl in DMSO) and cPLA2, 200 ng in 80 mM Hepes pH 7.5, 2 mM DTT and […]. This assay was conducted by either the manual assay or automated assay protocol described below.

[3] = test system: carrageenan-induced footpad edema; experiment: Rat carrageenan-induced footpad edema test; type: in vivo; conditions: iv, read-out: % inhibition of rat carrageenan-induced footpad edema
Method: Compounds of the present invention were also tested for in vivo activity in a rat paw edema test according to the procedure described in Example 89.
Rat Carrageenan-Induced Footpad Edema Test
Each compound was suspended in 0.3 ml absolute ethanol, 0.1 ml Tween-80 and 2.0 ml Dulbecco's PBS (without calcium or magnesium). To this mixture, 0.1 ml 1N NaOH was added. After solution was complete, additional amounts of PBS were added to adjust the concentration to 1 mg/ml. All comounds remained in solution. Compounds were administered i.v. in a volumne of 5 ml/kg to male Sprague Dawley rats at the same time that edema was induced by injection of 0.05 ml of 1% Type IV carrageenan into the hind footpad. Footpad volume was measured before dosing with compound and 3 hours after dosing with carageenan.

[4] = 60 μM 7-hydroxycoumarinyl 6-heptenoate, read-out: IC50 (μM) Coumarine
[5] = NA = inhibitory activity not detected, read-out: IC50 (μM) Lyso PC
[6] = 1 mg/ml, 5 ml/kg, male Sprague Dawley rats, footpad volume 3 hours after carrageenan

| IC50 (cPLA2 [1]; [4]) | IC50 (cPLA2 [2]; [5]) | Structure (SMILES) | inhibition in vivo at 1000 µg/mL, 5 mg/kg [3, 6] | IC50 (cPLA2 [1]) | IC50 (cPLA2 [2]) | inhibition in vivo at 1000 µg/mL, 5 mg/kg ([3]; 3 h) |
| --- | --- | --- | --- | --- | --- | --- |
| 6 µM | 0.32 µM | CCC(C)(C)c1ccc(OCC(=O)N2c3ccc(OCc4ccccc4)cc3CC2CSCC(=O)Nc2cccc(C(=O)O)c2)c(C(C)(C)CC)c1 (stereo not drawn) [Example 17, 3-(2-(-5-Benzyloxy-1-(2,4-bis(1,1-dimethy)propyl)phenoxyacetyl)indolinyl)methylthioacetamidobenzoic Acid] | 29.3% | – | – | – |
| – | – | O=C(O)c1cc(NC(=O)c2cc3cc(OCc4ccccc4)ccc3n2Cc2ccc(C(F)(F)F)cc2C(F)(F)F)ccc1Oc1ccc(Cl)nc1 [Example 10] | – | 28 µM | 0.33 µM | 8.9% |
| 19 µM | 0.84 µM | CCC(C)(C)c1ccc(OCC(=O)N2c3ccc(OCc4ccccc4)cc3CC2CSCC(=O)N(C)c2cc(C(=O)O)ccc2OC)c(C(C)(C)CC)c1 (stereo not drawn) [Example 70, 3-N-Methyl-(2-(-5-benzyloxy-1-(2,4-bis(1,1-dimethy)propyl)phenoxyacetyl)indolinyl)methylthioacetamido-4-methoxybenzoic Acid] | 21.7% | – | – | – |
